We go through 9 molecules from ChEMBL document CHEMBL1201862, “PubChem BioAssay data set” (2004).

Structures are written as SMILES. Activity calls are given as the source filed them.

The target of test [1] is E3 ubiquitin-protein ligase UHRF1 (Homo sapiens, UniProt Q96T88). Nature of the test: Counterscreen for inhibitors of 5-meCpG-binding domain protein 2 (MBD2): TRFRET-based biochemical high throughput dose response assay to identify inhibitors of binding of ubiquitin-like with PHD and ring finger domains 1 (UHRF1) to methylated oligonucleotide.
E3 ubiquitin-protein ligase UHRF1, sequence (Q96T88 whole entry, the tested form may be a part): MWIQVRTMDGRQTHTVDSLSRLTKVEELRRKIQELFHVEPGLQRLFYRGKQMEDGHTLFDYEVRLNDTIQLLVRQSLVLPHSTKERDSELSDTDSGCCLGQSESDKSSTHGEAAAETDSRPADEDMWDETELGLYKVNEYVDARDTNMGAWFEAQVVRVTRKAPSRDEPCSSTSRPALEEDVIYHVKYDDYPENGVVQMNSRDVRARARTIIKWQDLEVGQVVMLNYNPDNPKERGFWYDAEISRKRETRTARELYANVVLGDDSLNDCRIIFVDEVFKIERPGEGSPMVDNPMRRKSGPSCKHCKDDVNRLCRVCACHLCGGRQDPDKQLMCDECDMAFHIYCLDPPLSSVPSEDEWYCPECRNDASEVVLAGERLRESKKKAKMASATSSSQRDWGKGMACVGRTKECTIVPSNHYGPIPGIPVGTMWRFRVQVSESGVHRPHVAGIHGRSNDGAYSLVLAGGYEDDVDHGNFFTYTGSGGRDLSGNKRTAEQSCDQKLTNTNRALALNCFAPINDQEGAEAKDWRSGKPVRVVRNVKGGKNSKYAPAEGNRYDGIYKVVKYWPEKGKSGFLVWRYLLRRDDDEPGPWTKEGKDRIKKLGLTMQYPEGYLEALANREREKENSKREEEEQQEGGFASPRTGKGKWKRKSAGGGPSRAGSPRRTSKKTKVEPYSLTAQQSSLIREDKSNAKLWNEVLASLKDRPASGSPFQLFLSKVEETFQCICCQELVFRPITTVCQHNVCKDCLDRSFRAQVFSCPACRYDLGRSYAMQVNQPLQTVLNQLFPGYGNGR
The test system of a further test is INS1. Nature of the test: beta cell apoptosis inhibitors, cytokine rescue, dose response, luminescence, retest (AID 449756).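 Note: cell death triggered by IL-1 beta plus TNF-alpha plus IFN-gamma mixture; protective hits raise ATP signal compared with cytokine alone wells.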 Type of test: functional, cell-based. The conditions noted are these: Rattus norvegicus.
Test [2] is described as follows: cytotoxicity in MIN6 insulinoma cells, dose response, cytotoxicity control, cell-based, mouse insulinoma (AID 2122).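 Note: confirmatory high-throughput counterscreen run to flag cytotoxic compounds; mouse MIN-6 beta cells carrying an insulin promoter eGFP reporter.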 It counts as functional.
The nature of test [3]: insulin promoter down-regulators in MIN6 cells, imaging, high-content screening, mouse beta cells (AID 1628). Type of test: functional.
Test [4] is described as follows: A549 cell cytotoxicity, dose response, cytotoxicity control, 24 h, CellTiter-Glo luminescence, cherry-picks (AID 1053115). It counts as functional, cell-based. The following applies: A549, 24 h.
The target of a further test is Genome polyprotein (dengue virus type 2, UniProt P29990). In words: Dengue-2 NS5 methyltransferase inhibitors, primary screen, biochemical, confirmation dose response (AID 588689). It counts as functional.
Genome polyprotein, sequence (P29990 2492-3391 limits assumed): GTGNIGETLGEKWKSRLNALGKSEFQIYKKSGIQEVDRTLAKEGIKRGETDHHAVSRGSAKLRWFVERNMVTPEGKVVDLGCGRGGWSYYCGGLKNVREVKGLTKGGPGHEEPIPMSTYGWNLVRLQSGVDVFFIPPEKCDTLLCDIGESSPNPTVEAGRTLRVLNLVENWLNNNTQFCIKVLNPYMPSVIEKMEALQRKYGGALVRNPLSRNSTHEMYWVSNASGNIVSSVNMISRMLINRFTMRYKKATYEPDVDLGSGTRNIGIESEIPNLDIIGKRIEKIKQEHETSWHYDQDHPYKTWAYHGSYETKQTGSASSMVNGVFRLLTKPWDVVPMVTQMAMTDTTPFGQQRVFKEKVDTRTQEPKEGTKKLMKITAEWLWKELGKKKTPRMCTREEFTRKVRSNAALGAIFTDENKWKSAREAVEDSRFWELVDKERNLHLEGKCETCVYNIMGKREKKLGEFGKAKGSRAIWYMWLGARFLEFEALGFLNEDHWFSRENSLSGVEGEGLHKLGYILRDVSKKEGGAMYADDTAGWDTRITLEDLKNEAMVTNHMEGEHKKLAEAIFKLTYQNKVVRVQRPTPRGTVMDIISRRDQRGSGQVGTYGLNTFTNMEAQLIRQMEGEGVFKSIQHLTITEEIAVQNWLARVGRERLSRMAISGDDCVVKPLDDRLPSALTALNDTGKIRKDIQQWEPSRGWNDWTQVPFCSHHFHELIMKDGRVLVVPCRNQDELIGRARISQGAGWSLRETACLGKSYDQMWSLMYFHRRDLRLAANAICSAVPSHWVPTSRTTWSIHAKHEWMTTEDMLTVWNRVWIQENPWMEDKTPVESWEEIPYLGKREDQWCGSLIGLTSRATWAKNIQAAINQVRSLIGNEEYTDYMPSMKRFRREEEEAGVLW
In test [5] the target is Induced myeloid leukemia cell differentiation protein Mcl-1 (Homo sapiens, UniProt Q07820). Type of test: functional.
Induced myeloid leukemia cell differentiation protein Mcl-1, sequence (Q07820 whole entry): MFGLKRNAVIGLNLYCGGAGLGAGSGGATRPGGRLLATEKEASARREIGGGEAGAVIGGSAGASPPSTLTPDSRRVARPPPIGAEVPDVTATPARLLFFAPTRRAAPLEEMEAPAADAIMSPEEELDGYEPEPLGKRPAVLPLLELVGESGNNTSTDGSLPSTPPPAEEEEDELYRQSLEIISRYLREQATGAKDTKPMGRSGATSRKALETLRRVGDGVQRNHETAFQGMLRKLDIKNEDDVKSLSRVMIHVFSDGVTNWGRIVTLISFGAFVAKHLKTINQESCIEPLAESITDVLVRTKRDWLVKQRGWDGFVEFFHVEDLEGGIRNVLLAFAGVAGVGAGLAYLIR
A further test has as its target Caspase-6 (Homo sapiens, UniProt P55212). Nature of the test: human caspase-6 inhibitors, dose response, biochemical, VEID-R110 fluorescence, cherry-pick (AID 720632).
The target in test [6] is Bifunctional protein GlmU (Mycobacterium tuberculosis, UniProt P9WMN3). Nature of the test: Inhibitors of Mycobacterial Glucosamine-1-phosphate acetyl transferase (GlmU). Secondary screen. Also noted: species or system Mycobacterium tuberculosis H37Rv.
Bifunctional protein GlmU, sequence (P9WMN3 whole entry): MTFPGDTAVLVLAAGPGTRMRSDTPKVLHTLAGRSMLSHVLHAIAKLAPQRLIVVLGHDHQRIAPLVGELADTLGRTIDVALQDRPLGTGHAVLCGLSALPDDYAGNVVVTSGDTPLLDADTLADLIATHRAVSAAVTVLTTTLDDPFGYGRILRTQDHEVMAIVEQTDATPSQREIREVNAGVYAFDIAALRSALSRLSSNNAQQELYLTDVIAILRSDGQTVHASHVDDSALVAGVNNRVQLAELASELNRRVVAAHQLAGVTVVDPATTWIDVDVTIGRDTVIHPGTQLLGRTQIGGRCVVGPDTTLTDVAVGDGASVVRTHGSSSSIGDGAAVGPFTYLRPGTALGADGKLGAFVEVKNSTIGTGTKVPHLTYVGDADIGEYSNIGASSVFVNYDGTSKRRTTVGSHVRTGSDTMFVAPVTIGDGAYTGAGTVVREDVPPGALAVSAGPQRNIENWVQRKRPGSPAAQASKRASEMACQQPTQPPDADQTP
The target of test [7] is T1, Long-chain-fatty-acid--AMP ligase FadD28 (Mycobacterium tuberculosis, UniProt P9WQ59).
T1 sequence (P9WQ59 whole entry): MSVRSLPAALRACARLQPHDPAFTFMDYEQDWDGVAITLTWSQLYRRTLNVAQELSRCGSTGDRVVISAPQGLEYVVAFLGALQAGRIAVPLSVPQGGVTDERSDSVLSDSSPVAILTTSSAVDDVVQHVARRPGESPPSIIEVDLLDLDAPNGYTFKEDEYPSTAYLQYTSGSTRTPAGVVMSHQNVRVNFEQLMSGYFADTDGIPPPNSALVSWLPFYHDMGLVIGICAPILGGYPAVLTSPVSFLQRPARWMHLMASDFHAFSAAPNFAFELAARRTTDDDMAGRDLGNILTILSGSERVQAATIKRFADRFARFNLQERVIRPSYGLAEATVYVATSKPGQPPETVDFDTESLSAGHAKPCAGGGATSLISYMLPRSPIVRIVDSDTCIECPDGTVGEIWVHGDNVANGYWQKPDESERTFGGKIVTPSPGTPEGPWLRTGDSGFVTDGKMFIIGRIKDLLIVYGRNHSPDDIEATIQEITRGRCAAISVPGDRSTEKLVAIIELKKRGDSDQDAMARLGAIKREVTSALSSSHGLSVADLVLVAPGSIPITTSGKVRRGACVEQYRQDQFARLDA
In words: Fluorescence polarization aasay to screen for inhibitors that compete for the binding of FadD28 to a bisubstrate Measured in Biochemical System Using Plate Reader - 2147-01_Inhibitor_Dose_CherryPick_Activity. It counts as functional, Mycobacterium tuberculosis H37Rv. Background: Fluorescence polarisation rises when a labelled molecule tumbles more slowly, as on binding a larger partner.

A further test addresses T2, Aminopeptidase N (Plasmodium falciparum FcB1/Columbia, UniProt O96935).
T2 sequence (O96935 whole entry): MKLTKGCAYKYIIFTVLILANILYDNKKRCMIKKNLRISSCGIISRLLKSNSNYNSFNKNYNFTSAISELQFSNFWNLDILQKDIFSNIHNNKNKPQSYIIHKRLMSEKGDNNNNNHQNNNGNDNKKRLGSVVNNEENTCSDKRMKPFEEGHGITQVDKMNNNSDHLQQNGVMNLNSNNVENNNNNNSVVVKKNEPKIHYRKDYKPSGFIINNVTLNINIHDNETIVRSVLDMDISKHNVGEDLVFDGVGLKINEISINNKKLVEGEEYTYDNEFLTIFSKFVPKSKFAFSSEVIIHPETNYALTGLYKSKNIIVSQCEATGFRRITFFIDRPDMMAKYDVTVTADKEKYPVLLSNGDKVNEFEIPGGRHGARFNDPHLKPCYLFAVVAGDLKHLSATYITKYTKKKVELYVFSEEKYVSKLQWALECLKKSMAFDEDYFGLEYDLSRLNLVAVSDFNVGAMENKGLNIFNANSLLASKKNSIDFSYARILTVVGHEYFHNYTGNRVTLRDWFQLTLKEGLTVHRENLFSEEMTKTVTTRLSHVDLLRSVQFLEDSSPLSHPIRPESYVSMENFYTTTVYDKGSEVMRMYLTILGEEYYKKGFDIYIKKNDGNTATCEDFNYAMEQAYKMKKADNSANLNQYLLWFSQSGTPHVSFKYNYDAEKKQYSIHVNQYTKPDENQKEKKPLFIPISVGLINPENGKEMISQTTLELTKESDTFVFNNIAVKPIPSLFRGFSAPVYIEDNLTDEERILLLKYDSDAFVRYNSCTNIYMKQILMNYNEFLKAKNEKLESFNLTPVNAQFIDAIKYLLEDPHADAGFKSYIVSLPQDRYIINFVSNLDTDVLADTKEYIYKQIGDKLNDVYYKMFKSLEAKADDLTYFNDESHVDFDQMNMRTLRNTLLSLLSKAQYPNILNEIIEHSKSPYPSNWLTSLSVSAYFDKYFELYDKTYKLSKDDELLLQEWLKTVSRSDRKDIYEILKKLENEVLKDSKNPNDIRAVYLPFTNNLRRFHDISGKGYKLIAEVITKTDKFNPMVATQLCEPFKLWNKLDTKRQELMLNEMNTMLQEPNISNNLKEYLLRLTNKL
Nature of the test: P. falciparum M1AAP inhibitors, biochemical, fluorogenic H-Leu-NHMec substrate, 1536-well (AID 1445). Also noted: species or system Plasmodium falciparum 3D7, 3D7.

For test [8], the target named is E3 ubiquitin-protein ligase XIAP (Homo sapiens, UniProt P98170). Nature of the test: Counter Screen using XIAP-Bir3 for Chemical Antagonists of Bir1/2 domains of IAP-family anti-apoptotic proteins. [Related pubchem assays (depositor defined):AID1018, AID1449, AID1514, AID1638, AID1749, AID1750, AID488957, AID488963]. Background: The purpose of a counterscreen is to sort out artefacts and off-target activity.
E3 ubiquitin-protein ligase XIAP, sequence (P98170 whole entry): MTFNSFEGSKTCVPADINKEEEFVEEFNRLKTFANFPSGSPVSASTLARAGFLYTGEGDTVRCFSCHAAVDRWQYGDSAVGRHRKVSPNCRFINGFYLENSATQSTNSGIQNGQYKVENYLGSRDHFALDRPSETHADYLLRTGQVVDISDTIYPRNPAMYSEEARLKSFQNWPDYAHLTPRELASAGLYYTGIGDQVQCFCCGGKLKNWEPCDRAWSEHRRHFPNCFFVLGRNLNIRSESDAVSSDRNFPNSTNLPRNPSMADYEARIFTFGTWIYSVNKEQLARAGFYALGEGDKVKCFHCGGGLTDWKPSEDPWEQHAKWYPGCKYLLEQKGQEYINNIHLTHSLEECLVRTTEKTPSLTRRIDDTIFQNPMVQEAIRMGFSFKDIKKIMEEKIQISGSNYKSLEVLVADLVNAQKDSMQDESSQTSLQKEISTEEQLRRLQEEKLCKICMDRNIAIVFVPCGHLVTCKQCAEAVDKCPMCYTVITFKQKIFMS

The target in test [9] is COUP transcription factor 2 (Homo sapiens, UniProt P24468). In words: Luminescence-based cell-based high throughput dose response assay to identify inhibitors of COUP-TFII (NR2F2). It counts as functional.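 Note: HEK293 cells transiently cotransfected with COUP-TFII expression vector and reporter; luciferase reporter luminescence driven by COUP-TFII from the pX2-168 reporter plasmid.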
COUP transcription factor 2, sequence (P24468 whole entry): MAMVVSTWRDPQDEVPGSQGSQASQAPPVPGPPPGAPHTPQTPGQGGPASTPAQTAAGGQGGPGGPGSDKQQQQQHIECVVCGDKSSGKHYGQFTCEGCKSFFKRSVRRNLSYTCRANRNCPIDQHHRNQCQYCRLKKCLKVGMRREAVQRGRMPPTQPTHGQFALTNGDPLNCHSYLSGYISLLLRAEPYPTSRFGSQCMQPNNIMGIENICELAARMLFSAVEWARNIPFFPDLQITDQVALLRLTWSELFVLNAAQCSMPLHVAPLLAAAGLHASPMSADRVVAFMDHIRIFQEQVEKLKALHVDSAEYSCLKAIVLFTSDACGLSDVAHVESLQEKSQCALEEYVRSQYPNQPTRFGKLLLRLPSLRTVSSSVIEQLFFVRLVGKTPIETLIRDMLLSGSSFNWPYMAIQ
In another test the target is Vasopressin V2 receptor (Homo sapiens, UniProt P30518). Nature of the test: Late-stage results from the probe development effort to identify antagonists of arginine vasopressin receptor 1a (AVPR1a): fluorescence-based cell-based dose response AVPR2 inhibition counterscreen assay. It counts as functional.
Vasopressin V2 receptor, sequence (P30518 whole entry): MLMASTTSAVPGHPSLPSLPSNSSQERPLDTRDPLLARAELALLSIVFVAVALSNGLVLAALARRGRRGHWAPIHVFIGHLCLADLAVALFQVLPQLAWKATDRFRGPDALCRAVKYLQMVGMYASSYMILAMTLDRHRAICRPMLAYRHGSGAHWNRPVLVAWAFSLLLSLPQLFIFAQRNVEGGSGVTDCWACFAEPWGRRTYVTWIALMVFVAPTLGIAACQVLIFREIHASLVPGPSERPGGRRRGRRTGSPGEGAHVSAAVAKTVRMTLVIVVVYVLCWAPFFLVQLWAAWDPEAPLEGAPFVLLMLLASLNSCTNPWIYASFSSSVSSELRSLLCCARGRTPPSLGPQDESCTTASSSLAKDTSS
Test [10] in a line: Late-stage results from the probe development effort to identify antagonists of arginine vasopressin receptor 1a (AVPR1a): fluorescence-based cell-based dose response OXTR inhibition counterscreen assay. It counts as functional.
Test [11] in a line: Late-stage results from the probe development effort to identify antagonists of arginine vasopressin receptor 1a (AVPR1a): fluorescence-based cell-based dose response AVPR1a inhibition assay. Type of test: functional.
The target of another test is Vasopressin V1b receptor (Homo sapiens, UniProt P47901). In words: Late-stage results from the probe development effort to identify antagonists of arginine vasopressin receptor 1a (AVPR1a): fluorescence-based cell-based dose response AVPR1b inhibition counterscreen assay. Type of test: functional.
Vasopressin V1b receptor, sequence (P47901 whole entry): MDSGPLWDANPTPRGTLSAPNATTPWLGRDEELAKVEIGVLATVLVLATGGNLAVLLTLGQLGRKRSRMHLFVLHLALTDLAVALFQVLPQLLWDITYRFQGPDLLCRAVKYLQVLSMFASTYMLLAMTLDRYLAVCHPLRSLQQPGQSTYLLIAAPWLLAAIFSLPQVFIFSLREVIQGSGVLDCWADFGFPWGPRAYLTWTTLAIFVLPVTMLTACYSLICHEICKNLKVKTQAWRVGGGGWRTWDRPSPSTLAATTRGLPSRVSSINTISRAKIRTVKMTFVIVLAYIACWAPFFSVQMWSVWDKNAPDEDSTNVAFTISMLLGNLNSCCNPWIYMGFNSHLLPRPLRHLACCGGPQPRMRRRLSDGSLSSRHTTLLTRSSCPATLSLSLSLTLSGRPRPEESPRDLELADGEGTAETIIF
Test [12] in a line: inhibitors of PGC1a acetylation in cells, dose response, cell-based, cherry-picked samples (AID 720514).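 Note: potency may reflect raised or lowered acetylation signal.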 It counts as functional.
Test [13] can be described thus: NIH:OVCAR-3 ovarian cancer cell cytotoxicity, dose response, PAX8 inhibitor project, plate reader, dry powder samples (AID 743044). Type of test: functional, cell-based.
A further test deals with Paired box protein Pax-8 (Homo sapiens, UniProt Q06710). Nature of the test: inhibitors of PAX8-driven TPO luciferase reporter, dose response, RMG-I cells, cherry-pick (AID 687027).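 Note: luciferase reporter driven by Pax8 target thyroperoxidase promoter measured by SteadyGlo luminescence.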 It counts as functional, cell-based.
Paired box protein Pax-8, sequence (Q06710 whole entry): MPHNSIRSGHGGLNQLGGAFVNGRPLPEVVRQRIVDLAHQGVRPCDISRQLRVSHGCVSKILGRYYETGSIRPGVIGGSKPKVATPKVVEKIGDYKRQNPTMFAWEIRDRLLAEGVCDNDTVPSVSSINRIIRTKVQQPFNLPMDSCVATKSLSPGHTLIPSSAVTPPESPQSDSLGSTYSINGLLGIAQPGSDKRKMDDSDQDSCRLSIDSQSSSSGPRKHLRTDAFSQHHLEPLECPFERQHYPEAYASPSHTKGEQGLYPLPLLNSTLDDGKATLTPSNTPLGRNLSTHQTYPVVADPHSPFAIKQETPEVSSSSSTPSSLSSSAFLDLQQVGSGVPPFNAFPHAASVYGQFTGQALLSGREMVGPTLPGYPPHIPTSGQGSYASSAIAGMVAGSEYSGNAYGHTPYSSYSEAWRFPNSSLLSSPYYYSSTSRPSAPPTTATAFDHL
Test [14] is described as follows: IOSE-T80 ovarian epithelial cell cytotoxicity, dose response, cytotoxicity control for PAX8 inhibitor project, plate reader, dry powder samples (AID 743045). Type of test: functional, cell-based.
Test [15] can be described thus: cytotoxicity in OVCAR8 ovarian cancer cells, dose response, PAX8 project, cell-based, plate reader, dry powder samples (AID 743197). Type of test: functional. The conditions noted are these: OVCAR-8.
The nature of test [16]: IGROV1 ovarian cancer cell cytotoxicity, dose response, PAX8 inhibitor project, plate reader, dry powder samples (AID 743043). It counts as functional, cell-based. The following applies: IGROV-1.
The next test has as its target Bcl-2-like protein 10 (Homo sapiens, UniProt Q9HD36). Nature of the test: displacers of TR3 peptide from Bcl-B, primary screen, selectivity assay for Bfl-1 inhibitor project, biochemical, fluorescence polarization, FITC-TR3 peptide (AID 748).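 Note: fluorescence polarization from a fluorescein-labelled TR3 peptide binding purified Bcl-B.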
A short description of test [17]: Artemis endonuclease inhibitor potency, dose response, biochemical, fluorescence intensity (AID 720701).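 Note: Artemis endonuclease enzyme.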 Type of test: functional.
Test [18] is described as follows: HIV Env cell-cell fusion inhibitors, dose response, HIV entry, plate reader, dry powder (AID 687023). It counts as functional, cell-based.
Test [19] in a line: luciferase signal loss, tTA control fusion, HeLa F-luc tTA cells, dry powder, counter-screen for HIV Env fusion inhibitor project, dose response (AID 687021). It counts as functional, cell-based.

Bcl-2-like protein 10, sequence (Q9HD36 whole entry): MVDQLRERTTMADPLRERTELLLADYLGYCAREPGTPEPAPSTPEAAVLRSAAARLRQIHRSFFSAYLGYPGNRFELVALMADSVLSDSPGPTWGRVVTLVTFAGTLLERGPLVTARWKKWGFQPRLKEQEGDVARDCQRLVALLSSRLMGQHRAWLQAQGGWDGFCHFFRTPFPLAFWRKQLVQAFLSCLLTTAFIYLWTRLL

Take `[O-][Cl+3]([O-])([O-])[O-].c1ccc(-c2cc(-c3ccccc3)[n+](-c3ccccc3)c(-c3ccccc3)c2)cc1`: the IC50 in [1] was 14.3 µM (inactive); in test [2] it was 1.77 µM (active); in test [3], 1.06 µM (active). Besides, the AC50 in the test with INS1 was 2.59 µM (active).
As for `COc1ccccc1CN1CC[C@@H]2[C@H]1c1cc(C#Cc3ccccc3)ccc1N[C@@H]2CO`, in test [4], the half-maximal activity concentration (AC50) is 46.8 µM (active).
`O=C(Nc1cccc(Oc2ccc(C(=O)O)c(C(=O)O)c2)c1)c1ccc(-c2ccccc2)cc1`: the IC50 at Genome polyprotein is 20.5 µM (active); in test [5], 4.44 µM (active); in [6], 147 µM (active); on Aminopeptidase N, 44.7 µM (active); in test [8] it was > 20 µM (inactive). In addition, the AC50 is 15.7 µM (active) on Caspase-6 and 82.4 µM (active) in test [7].
With `Cc1ccc(-n2nc3c(=O)n(C(C)C(=O)NCCCc4ccccc4)nc(C)c3c2C)cc1` (stereo not drawn), in test [9], the IC50 is 11.7 µM (inactive).
Take `O=C(C1CCN(c2ncccc2C(F)(F)F)CC1)N(CC1CC1)c1ccc(Cl)cc1`: the IC50 on Vasopressin V2 receptor is 5.91 µM (active); in test [10], 0.8 µM (active); in test [11] it was 0.084 µM (active); on Vasopressin V1b receptor, 5.93 µM (active).
As for `CCOc1ccc(N2C(=O)Cc3ccccc3C2=O)cc1`, in test [12], the AC50 is 32.7 µM (active).
Regarding `C[C@@H]1CCCCO[C@@H](CN(C)Cc2ccc3c(c2)OCO3)[C@H](C)CN([C@@H](C)CO)C(=O)c2cc(NC(=O)Nc3ccc(C(F)(F)F)cc3)ccc2O1`, the concentration at half-maximal activity (AC50) is 15.4 µM (active) in [13]; 14.5 µM (active) at Paired box protein Pax-8; 63.2 µM (active) in [14]; 30.2 µM (active) in [15]; 34 µM (active) in test [16].
Turning to `COc1ccc(C(=O)Nc2ccc(N3CCCC3)cc2)cc1`, the concentration for half-maximal inhibition (IC50) on Bcl-2-like protein 10 was 41.9 µM (active); in test [17], 16.2 µM (active); in test [5] it was 3.44 µM (active).
Regarding `CCOc1ccc(S(=O)(=O)NCc2ccccn2)cc1`, the AC50 in test [18] and in test [19] was > 70 µM (inactive) throughout.

By IC50 is commonly meant the concentration that gives 50% inhibition. By AC50 is commonly meant the concentration at which the activity in the assay is half-maximal.
